Starred links: 1 amine or outer side, 2 acyl side, 3 side chain; linkers in the order of their positions; H or OH if unused. Residues, ends and D or L forms follow the SMILES beside them. Groups on a side chain read outwards from the residue. *: point of attachment. C18 diacid = O=C(O)CCCCCCCCCCCCCCCCC(=O)*; γGlu = O=C(O)[C@H](CCC(=O)[*:2])N[*:1]; Palmitoyl = CCCCCCCCCCCCCCCC(=O)*; AEEA = NCCOCCOCC(=O)O
Legend:
Solubility in buffer = conditions: 80 mM ammonium bicarbonate buffer, pH 7.7, Solubility [mg/mL] 80 mM AmBicarb pH7.7, Table 2; 80 mM AmBicarb pH7.7
GLP-1R = GLP-1R (Homo sapiens, UniProt P43220); experiment: GLP-1 receptor-mediated cAMP induction, luciferase reporter gene antagonism assay; format: cell-based; set-up: host or cells: HEK 293; conditions: Table 2; C16 linker variants of 9-40amide Jant4 K40[X]; antagonism of 0.05 nM GLP-1, HEK 293 cells; read-out: Biactivity IC50
GLP-1R, sequence (P43220 24-463): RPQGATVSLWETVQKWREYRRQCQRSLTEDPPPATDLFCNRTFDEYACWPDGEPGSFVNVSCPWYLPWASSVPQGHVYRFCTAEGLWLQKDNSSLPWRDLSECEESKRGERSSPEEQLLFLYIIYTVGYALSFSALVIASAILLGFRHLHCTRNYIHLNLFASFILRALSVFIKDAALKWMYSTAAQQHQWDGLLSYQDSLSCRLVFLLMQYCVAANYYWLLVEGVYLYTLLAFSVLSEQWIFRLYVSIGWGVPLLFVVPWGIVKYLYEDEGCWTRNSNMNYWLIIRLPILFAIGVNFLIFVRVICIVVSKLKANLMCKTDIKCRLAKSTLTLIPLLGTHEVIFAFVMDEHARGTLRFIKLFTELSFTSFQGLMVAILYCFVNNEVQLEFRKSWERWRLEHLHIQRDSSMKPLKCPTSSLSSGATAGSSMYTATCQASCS
Procedure: GLP-1 Receptor-Mediated cAMP Induction The ability of peptides to stimulate or block cAMP induction at the GLP-1 receptor was examined by a luciferase-based reporter gene assay. Cotransfection of HEK 293 cells with the human GLP-1 receptor (Open Biosystems) and a cAMPinducible (cAMPresponsive element) luciferase gene constituted the cellular construct where receptor activation could be measured. Bioassays were performed by first serum depriving the cells for 16 h in 0.25% bovine growth serum (HyClone)-supplemented Dulbecco's modified Eagle's medium (Invitrogen) and then adding serial dilutions of the peptides over the appropriate concentration ranges in 96-well poly-D-lysine-coated plates (BD Biosciences). For antagonism assays, a constant concentration of GLP-1 (0.05 nM) was added to the assay plate after the diluted peptides. Incubation continued for 5 h at 37° C., 5% CO2 and was followed by the addition of an equivalent volume (100 μL) of LucLite luminescence substrate reagent (Perkin-Elmer). MicroBeta 1450 liquid scintillation counting (Perkin-Elmer) quantified the luminescence signal in counts per second (cps) after shaking the plate at 600 rpm for 3 min. Data was plotted using Origin software (OriginLab) and the effective concentration 50 (EC50) or inhibitory concentration 50 (IC50) was determined by sigmoidal fitting. Potency was determined by comparative analysis of relative EC50 or IC50 values. Each experiment was repeated at least three times with each sample assayed in duplicate.

Row | Structure (SMILES) | solubility (Solubility in buffer) [mg/mL] | IC50 (GLP-1R) [nM]
1 | CCCCCCCCCCCCCCCC(=O)N[C@@H](CCC(=O)N[C@@H](CCC(=O)N[C@@H](CCC(=O)N[C@@H](CCC(=O)N[C@@H](CCC(=O)N[C@@H](CCC(=O)NCCCC[C@H](NC(=O)[C@H](CO)NC(=O)[C@@H]1CCCN1C(=O)[C@@H]1CCCN1C(=O)[C@@H]1CCCN1C(=O)[C@H](C)NC(=O)CNC(=O)[C@H](CO)NC(=O)[C@H](CO)NC(=O)[C@@H]1CCCN1C(=O)CNC(=O)CNC(=O)[C@H](CCCCN)NC(=O)[C@@H](NC(=O)[C@H](CC(C)C)NC(=O)[C@H](Cc1c[nH]c2ccccc12)NC(=O)[C@H](C)NC(=O)[C@@H](NC(=O)[C@H](Cc1ccccc1)NC(=O)[C@H](CCC(=O)O)NC(=O)[C@H](CCCNC(=N)N)NC(=O)[C@@H](NC(=O)[C@H](C)NC(=O)[C@H](CCC(N)=O)NC(=O)[C@H](CCC(=O)O)NC(=O)[C@H](CCC(=O)O)NC(=O)[C@H](CC(C)C)NC(=O)[C@H](Cc1ccc(O)cc1)NC(=O)[C@H](CO)NC(=O)[C@H](CO)NC(=O)[C@@H](NC(=O)[C@@H](N)CC(=O)O)C(C)C)C(C)C)[C@@H](C)CC)C(C)C)C(N)=O)C(=O)O)C(=O)O)C(=O)O)C(=O)O)C(=O)O)C(=O)O [compound 55] (H-DVSSYLEEQAVREFIAWLVKGGPSSGAPPPSK([γGlu-γGlu-γGlu-γGlu-γGlu-γGlu-Palmitoyl])-NH2; N-terminus assumed) | > 20 | 22
2 | CCCCCCCCCCCCCCCC(=O)N[C@@H](CCC(=O)NCCOCCOCC(=O)N[C@@H](CCC(=O)NCCOCCOCC(=O)NCCCC[C@H](NC(=O)[C@H](CO)NC(=O)[C@@H]1CCCN1C(=O)[C@@H]1CCCN1C(=O)[C@@H]1CCCN1C(=O)[C@H](C)NC(=O)CNC(=O)[C@H](CO)NC(=O)[C@H](CO)NC(=O)[C@@H]1CCCN1C(=O)CNC(=O)CNC(=O)[C@H](CCCCN)NC(=O)[C@@H](NC(=O)[C@H](CC(C)C)NC(=O)[C@H](Cc1c[nH]c2ccccc12)NC(=O)[C@H](C)NC(=O)[C@@H](NC(=O)[C@H](Cc1ccccc1)NC(=O)[C@H](CCC(=O)O)NC(=O)[C@H](CCCNC(=N)N)NC(=O)[C@@H](NC(=O)[C@H](C)NC(=O)[C@H](CCC(N)=O)NC(=O)[C@H](CCC(=O)O)NC(=O)[C@H](CCC(=O)O)NC(=O)[C@H](CC(C)C)NC(=O)[C@H](Cc1ccc(O)cc1)NC(=O)[C@H](CO)NC(=O)[C@H](CO)NC(=O)[C@@H](NC(=O)[C@@H](N)CC(=O)O)C(C)C)C(C)C)[C@@H](C)CC)C(C)C)C(N)=O)C(=O)O)C(=O)O [compound 59] (H-DVSSYLEEQAVREFIAWLVKGGPSSGAPPPSK([AEEA-γGlu-AEEA-γGlu-Palmitoyl])-NH2; N-terminus assumed) | > 25 | 11
3 | CCCCCCCCCCCCCCCC(=O)NCCOCCOCC(=O)N[C@@H](CCC(=O)N[C@@H](CCC(=O)NCCOCCOCC(=O)NCCCC[C@H](NC(=O)[C@H](CO)NC(=O)[C@@H]1CCCN1C(=O)[C@@H]1CCCN1C(=O)[C@@H]1CCCN1C(=O)[C@H](C)NC(=O)CNC(=O)[C@H](CO)NC(=O)[C@H](CO)NC(=O)[C@@H]1CCCN1C(=O)CNC(=O)CNC(=O)[C@H](CCCCN)NC(=O)[C@@H](NC(=O)[C@H](CC(C)C)NC(=O)[C@H](Cc1c[nH]c2ccccc12)NC(=O)[C@H](C)NC(=O)[C@@H](NC(=O)[C@H](Cc1ccccc1)NC(=O)[C@H](CCC(=O)O)NC(=O)[C@H](CCCNC(=N)N)NC(=O)[C@@H](NC(=O)[C@H](C)NC(=O)[C@H](CCC(N)=O)NC(=O)[C@H](CCC(=O)O)NC(=O)[C@H](CCC(=O)O)NC(=O)[C@H](CC(C)C)NC(=O)[C@H](Cc1ccc(O)cc1)NC(=O)[C@H](CO)NC(=O)[C@H](CO)NC(=O)[C@@H](NC(=O)[C@@H](N)CC(=O)O)C(C)C)C(C)C)[C@@H](C)CC)C(C)C)C(N)=O)C(=O)O)C(=O)O [compound 60] (H-DVSSYLEEQAVREFIAWLVKGGPSSGAPPPSK([AEEA-γGlu-γGlu-AEEA-Palmitoyl])-NH2; N-terminus assumed) | > 25 | 5
4 | CCCCCCCCCCCCCCCC(=O)NCCOCCOCC(=O)N[C@@H](CCC(=O)NCCOCCOCC(=O)N[C@@H](CCC(=O)NCCCC[C@H](NC(=O)[C@H](CO)NC(=O)[C@@H]1CCCN1C(=O)[C@@H]1CCCN1C(=O)[C@@H]1CCCN1C(=O)[C@H](C)NC(=O)CNC(=O)[C@H](CO)NC(=O)[C@H](CO)NC(=O)[C@@H]1CCCN1C(=O)CNC(=O)CNC(=O)[C@H](CCCCN)NC(=O)[C@@H](NC(=O)[C@H](CC(C)C)NC(=O)[C@H](Cc1c[nH]c2ccccc12)NC(=O)[C@H](C)NC(=O)[C@@H](NC(=O)[C@H](Cc1ccccc1)NC(=O)[C@H](CCC(=O)O)NC(=O)[C@H](CCCNC(=N)N)NC(=O)[C@@H](NC(=O)[C@H](C)NC(=O)[C@H](CCC(N)=O)NC(=O)[C@H](CCC(=O)O)NC(=O)[C@H](CCC(=O)O)NC(=O)[C@H](CC(C)C)NC(=O)[C@H](Cc1ccc(O)cc1)NC(=O)[C@H](CO)NC(=O)[C@H](CO)NC(=O)[C@@H](NC(=O)[C@@H](N)CC(=O)O)C(C)C)C(C)C)[C@@H](C)CC)C(C)C)C(N)=O)C(=O)O)C(=O)O [compound 62] (H-DVSSYLEEQAVREFIAWLVKGGPSSGAPPPSK([γGlu-AEEA-γGlu-AEEA-Palmitoyl])-NH2; N-terminus assumed) | > 25 | 7
5 | CC[C@H](C)[C@H](NC(=O)[C@H](Cc1ccccc1)NC(=O)[C@H](CCC(=O)O)NC(=O)[C@H](CCCNC(=N)N)NC(=O)[C@@H](NC(=O)[C@H](C)NC(=O)[C@H](CCC(N)=O)NC(=O)[C@H](CCC(=O)O)NC(=O)[C@H](CCC(=O)O)NC(=O)[C@H](CC(C)C)NC(=O)[C@H](Cc1ccc(O)cc1)NC(=O)[C@H](CO)NC(=O)[C@H](CO)NC(=O)[C@@H](NC(=O)[C@@H](N)CC(=O)O)C(C)C)C(C)C)C(=O)N[C@@H](C)C(=O)N[C@@H](Cc1c[nH]c2ccccc12)C(=O)N[C@@H](CC(C)C)C(=O)N[C@H](C(=O)N[C@@H](CCCCN)C(=O)NCC(=O)NCC(=O)N1CCC[C@H]1C(=O)N[C@@H](CO)C(=O)N[C@@H](CO)C(=O)NCC(=O)N[C@@H](C)C(=O)N1CCC[C@H]1C(=O)N1CCC[C@H]1C(=O)N1CCC[C@H]1C(=O)N[C@@H](CO)C(=O)N[C@@H](CCCCNC(=O)CCCCCCCCCCCCCCCCC(=O)O)C(N)=O)C(C)C [compound 63] (H-DVSSYLEEQAVREFIAWLVKGGPSSGAPPPSK(C18 diacid)-NH2; N-terminus assumed) | > 25 | 114
6 | CC[C@H](C)[C@H](NC(=O)[C@H](Cc1ccccc1)NC(=O)[C@H](CCC(=O)O)NC(=O)[C@H](CCCNC(=N)N)NC(=O)[C@@H](NC(=O)[C@H](C)NC(=O)[C@H](CCC(N)=O)NC(=O)[C@H](CCC(=O)O)NC(=O)[C@H](CCC(=O)O)NC(=O)[C@H](CC(C)C)NC(=O)[C@H](Cc1ccc(O)cc1)NC(=O)[C@H](CO)NC(=O)[C@H](CO)NC(=O)[C@@H](NC(=O)[C@@H](N)CC(=O)O)C(C)C)C(C)C)C(=O)N[C@@H](C)C(=O)N[C@@H](Cc1c[nH]c2ccccc12)C(=O)N[C@@H](CC(C)C)C(=O)N[C@H](C(=O)N[C@@H](CCCCN)C(=O)NCC(=O)NCC(=O)N1CCC[C@H]1C(=O)N[C@@H](CO)C(=O)N[C@@H](CO)C(=O)NCC(=O)N[C@@H](C)C(=O)N1CCC[C@H]1C(=O)N1CCC[C@H]1C(=O)N1CCC[C@H]1C(=O)N[C@@H](CO)C(=O)N[C@@H](CCCCNC(=O)CC[C@H](NC(=O)CC[C@H](NC(=O)CCCCCCCCCCCCCCCCC(=O)O)C(=O)O)C(=O)O)C(N)=O)C(C)C [compound 64] (H-DVSSYLEEQAVREFIAWLVKGGPSSGAPPPSK([γGlu-γGlu-C18 diacid])-NH2; N-terminus assumed) | > 25 | 841
7 | CC[C@H](C)[C@H](NC(=O)[C@H](Cc1ccccc1)NC(=O)[C@H](CCC(=O)O)NC(=O)[C@H](CCCNC(=N)N)NC(=O)[C@@H](NC(=O)[C@H](C)NC(=O)[C@H](CCC(N)=O)NC(=O)[C@H](CCC(=O)O)NC(=O)[C@H](CCC(=O)O)NC(=O)[C@H](CC(C)C)NC(=O)[C@H](Cc1ccc(O)cc1)NC(=O)[C@H](CO)NC(=O)[C@H](CO)NC(=O)[C@@H](NC(=O)[C@@H](N)CC(=O)O)C(C)C)C(C)C)C(=O)N[C@@H](C)C(=O)N[C@@H](Cc1c[nH]c2ccccc12)C(=O)N[C@@H](CC(C)C)C(=O)N[C@H](C(=O)N[C@@H](CCCCN)C(=O)NCC(=O)NCC(=O)N1CCC[C@H]1C(=O)N[C@@H](CO)C(=O)N[C@@H](CO)C(=O)NCC(=O)N[C@@H](C)C(=O)N1CCC[C@H]1C(=O)N1CCC[C@H]1C(=O)N1CCC[C@H]1C(=O)N[C@@H](CO)C(=O)N[C@@H](CCCCNC(=O)CC[C@H](NC(=O)CC[C@H](NC(=O)CC[C@H](NC(=O)CC[C@H](NC(=O)CCCCCCCCCCCCCCCCC(=O)O)C(=O)O)C(=O)O)C(=O)O)C(=O)O)C(N)=O)C(C)C [compound 65] (H-DVSSYLEEQAVREFIAWLVKGGPSSGAPPPSK([γGlu-γGlu-γGlu-γGlu-C18 diacid])-NH2; N-terminus assumed) | > 25 | 1070

Reference: patent publication US20240058422A1, “GLUCAGON-LIKE PEPTIDE-1 RECEPTOR ANTAGONISTS” (INDIANA UNIVERSITY RESEARCH AND TECHNOLOGY CORPORATION, priority 2022, published 2024)
